According to patent US20210115521A1, “METHOD FOR INHIBITING TUMOR PROGRESSION OR DETERMINING TUMOR PROGRESSION STATE IN GASTRIC CANCER” (National Tsing Hua University, priority 2019, published 2021):
Residues, ends and D or L forms follow the SMILES beside them. *: point of attachment. Cbz = O=C(OCc1ccccc1)*

Columns and labels:
[1] = tested on: PTEN; assay: PTEN protein level by Western blotting in MKN45; format: cell-based, human; conditions: MG132-treated pLKO MKN45 cells
Protocol: FIG. 16. Pharmacological inhibition of PHF8-PKCα-Src-PTEN blocks GC progression in vitro and in vivo. […] Data form FIGS. 16B and 16D are presented as the average of 3 replicates ±SD. *p<0.05, **p<0.01 (two-tailed Student's t test). Zebrafish xenotransplantation assays using Mido or Bosu. Fluorescence microscopic analysis was conducted at 1 dpi and 3 dpi. […] Cyan, blood vessel. Scale bar, 100 μm. […] Total number of embryos used in vehicle, Mido, Bosu is shown in the bracket. Data were obtained from 3 independent studies. *p<0.05 (two-tailed Student's t test).
(§1) For immunoblotting assay, PBS-washed cells collected by scraping were directly lysed in RIPA buffer supplemented with protease inhibitor (Santa Cruz) and PhosSTOP (Sigma). Appropriate amounts of protein were separated on SDS-PAGE and then electrotransferred to PVDF membrane (PALL, Protein Washington, N.Y., USA). After the transfer, each membrane was incubated with appropriate primary antibody overnight at 4° C. and then probed with secondary antibodies conjugated with fluorescence. Odyssey Infrared Imaging System (LI-COR Biosciences, Lincoln, Nebr., USA) was utilized to detect the level of fluorescence. For immunoprecipitation assay, cell pellets were lysed in lysis buffer [50 mM Tris-HCl (pH 7.4), 150 mM NaCl, 0.5% NP40)] containing protease inhibitor (Santa Cruz). […]

[2] = tested on: PTEN; assay: PTEN protein level by Western blotting in MKN28; format: cell-based, human; conditions: MG132-treated pLKO MKN28 cells
Description: FIG. 15. Pharmacological inhibition of PHF8-PKCα-Src-PTEN blocks GC progression in vitro and in vivo. […] Data from FIGS. 15B and 15D are presented as the average of three replicates ±SD **P<0.01 (two-tailed Student's t test). Zebrafish xeno-transplantation assays using Mido or Bosu. […] Cyan, blood vessel. […] Total number of embryos used in vehicle, Mido, and Bosu is shown in the bracket. Data were obtained from three independent studies. **P<0.01 (two-tailed Student's t test).
as §1

[3] = tested on: MKN45 cells; assay: Zebrafish xenotransplantation migration assay, MKN45; format: in vivo; conditions: MKN45-injected embryos, immersion in 1 μM at 1 dpi, read at 3 dpi
Protocol: The Tg (fli1: EGFP) zebrafish transgenic strain was purchased from ZIRC (Oregon, USA). The zebrafish embryos, larvae, and adult fish were maintained in the Taiwan Zebrafish Core Facility @ NHRI. At two-day post-fertilization, the embryos were dechorionated and subsequently anesthetized with tricaine (0.04 mg/ml). MKN28 or MKN45 cells were labeled with either CFSE or CM-DiI. Two hundred labeled cells (4.6 nl) were injected into the yolk of two-day old embryo using a Nanoject II Auto-Nanoliter Injector (Drummond Science, Broomall, Pa., USA). Later, individual recipients were examined for fluorescent cells 1 and 3 day-post injection by a fluorescence microscopy (Leica). […]
Next, to evaluate migration behavior using a zebrafish xenotransplantation assay, an efficient in vivo system that utilizes a small number of cells (100 to 200 cells) to accurately monitor cell migratory activity within a couple of days. […] Migration activity was monitored at 1-day postinjection (1 dpi) and 3 dpi by fluorescence microscopy.
Next, to corroborate this finding using a zebrafish xeno-transplantation model. Cells labeled with Vybrant CM-DiI (CM-Dil) (red fluorescence dye) were injected into the embryos of Tg (fli1: EGFP) (fish with green fluorescence in blood vessels), followed by immersion in solutions containing 1 μM m Midostaurin or Bosutinib (a sublethal dose) at 1 dpi. […]

[4] = tested on: MKN28 cells; assay: Zebrafish xenotransplantation migration assay, MKN28; format: in vivo; conditions: MKN28-injected embryos, immersion in 1 μM at 1 dpi, read at 3 dpi
Protocol: The Tg (fli1: EGFP) zebrafish transgenic strain was purchased from ZIRC (Oregon, USA). […] At two-day post-fertilization, the embryos were dechorionated and subsequently anesthetized with tricaine (0.04 mg/ml). MKN28 or MKN45 cells were labeled with either CFSE or CM-DiI. Two hundred labeled cells (4.6 nl) were injected into the yolk of two-day old embryo using a Nanoject II Auto-Nanoliter Injector (Drummond Science, Broomall, Pa., USA). Later, individual recipients were examined for fluorescent cells 1 and 3 day-post injection by a fluorescence microscopy (Leica).
Next, to evaluate migration behavior using a zebrafish xenotransplantation assay, an efficient in vivo system that utilizes a small number of cells (100 to 200 cells) to accurately monitor cell migratory activity within a couple of days. Cells (pLKO vs. shPHF8) were labeled with carboxyfluorescein succinimidyl ester (CFSE), an amine-reactive green fluorescent dye, and injected into zebrafish embryos. Migration activity was monitored at 1-day postinjection (1 dpi) and 3 dpi by fluorescence microscopy.

SMILES	PTEN protein level with MG132 treatment [1]	PTEN protein level with MG132 treatment [2]	embryos with migration behavior (metastatic activity) [3]	embryos with migration behavior (dissemination and invasion) [4]
CC(C)C[C@@H](C=O)NC(=O)[C@H](CC(C)C)NC(=O)[C@H](CC(C)C)NC(=O)OCc1ccccc1 [MG132] (Cbz-Leu-Leu-Leu-aldehyde)	rescued	rescued		
COc1cc(Nc2c(C#N)cnc3cc(OCCCN4CCN(C)CC4)c(OC)cc23)c(Cl)cc1Cl [Bosutinib]			18.08%	11.95%
CO[C@@H]1[C@H](N(C)C(=O)c2ccccc2)C[C@H]2O[C@]1(C)n1c3ccccc3c3c4c(c5c6ccccc6n2c5c31)C(=O)NC4 [Midostaurin]			13.88%	11%
